The record followed here is patent US20160130226A1, “SPIRO-SUBSTITUTED OXINDOLE DERIVATIVES HAVING AMPK ACTIVITY” (BOEHRINGER INGELHEIM INTERNATIONAL GMBH, priority 2013, published 2016).

The target in one test is T1, AMPK beta 2 (Mus musculus, UniProt Q6PAM0+Q8BRK8).
T1 construct: fully differentiated myotubes (C2C12 cells) grown in 96 well plate; endogenous in cells; host or cells: C2C12 myotubes (assignment to the beta 2 column inferred)
The test is described as follows: in-cell-ELISA for phospho-ACC: activation of AMPK, beta 2 (HepG2 cells / C2C12 myotubes). In kind it is cell-based. As to conditions: 2 h, percentage activation over vehicle control. The method, then: Activation of AMPK by various compounds were measured using in-cell-ELISA for phospho-ACC (Acetyl-CoA carboxylase 1) in HepG2 cells (liver) and fully differentiated myotubes (C2C12 cells) grown in 96 well plate. Cells were treated with 1 μM, 3 μM or 10 μM of the molecule (Example) for 2 h in serum free DMEM media. After methanol fixation, cells were blocked with BSA followed by addition of anti-phospho ACC antibody (Cell Signaling) and HRP conjugated secondary antibody. Absorbance values taken at 450 nm were normalized with total DNA (Hoechest stain). Results were expressed as percentage activation over vehicle control.
Percentage activation at compound (Example) concentration of 1, 3 or 10 μM for compounds according to the invention are shown in the following table. The number of the compound corresponds to the number of the Example (Ex) in the experimental section.
(An ELISA detects its analyte on a solid surface through an enzyme-linked reagent.)

For a further test, the target named is T2, AMPK beta 1 (Homo sapiens, UniProt Q13131+Q9Y478).
T2 construct: in-cell-ELISA for phospho-ACC (Acetyl-CoA carboxylase 1) in HepG2 cells (liver); endogenous in cells; host or cells: HepG2 (assignment to the beta 1 column inferred)
T2 sequence (Q9Y478 2-270 limits assumed): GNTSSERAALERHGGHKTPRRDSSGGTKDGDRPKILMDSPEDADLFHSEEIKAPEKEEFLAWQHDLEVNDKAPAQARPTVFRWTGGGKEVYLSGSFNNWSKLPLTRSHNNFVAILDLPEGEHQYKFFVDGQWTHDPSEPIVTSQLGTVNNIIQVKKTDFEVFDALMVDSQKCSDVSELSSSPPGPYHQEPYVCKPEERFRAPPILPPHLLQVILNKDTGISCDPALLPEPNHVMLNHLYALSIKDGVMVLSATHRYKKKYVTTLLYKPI
T2 sequence (Q13131 whole entry): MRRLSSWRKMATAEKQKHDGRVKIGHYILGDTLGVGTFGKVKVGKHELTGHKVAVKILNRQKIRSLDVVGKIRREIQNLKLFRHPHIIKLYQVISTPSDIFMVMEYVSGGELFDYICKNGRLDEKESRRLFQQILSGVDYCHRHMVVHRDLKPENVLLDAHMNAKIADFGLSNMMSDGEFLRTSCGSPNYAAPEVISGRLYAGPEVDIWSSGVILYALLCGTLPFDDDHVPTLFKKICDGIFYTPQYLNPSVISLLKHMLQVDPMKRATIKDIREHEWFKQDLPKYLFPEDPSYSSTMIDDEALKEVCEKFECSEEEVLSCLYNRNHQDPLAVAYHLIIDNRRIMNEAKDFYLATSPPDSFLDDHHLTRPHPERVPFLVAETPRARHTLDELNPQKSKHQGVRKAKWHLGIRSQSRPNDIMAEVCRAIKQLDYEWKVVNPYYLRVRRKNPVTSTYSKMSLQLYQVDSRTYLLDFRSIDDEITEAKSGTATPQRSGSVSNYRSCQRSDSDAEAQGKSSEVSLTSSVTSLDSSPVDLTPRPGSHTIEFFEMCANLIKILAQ
T2 sequence (P54619 whole entry partner): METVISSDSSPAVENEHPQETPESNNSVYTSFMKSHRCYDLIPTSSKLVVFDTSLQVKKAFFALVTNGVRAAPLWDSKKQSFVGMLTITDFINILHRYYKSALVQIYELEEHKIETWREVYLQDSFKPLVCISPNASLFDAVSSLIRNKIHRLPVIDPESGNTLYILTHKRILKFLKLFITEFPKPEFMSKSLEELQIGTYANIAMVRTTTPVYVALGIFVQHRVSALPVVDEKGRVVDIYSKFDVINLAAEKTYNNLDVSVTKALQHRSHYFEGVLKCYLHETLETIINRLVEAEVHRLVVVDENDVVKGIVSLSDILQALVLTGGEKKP
In words: in-cell-ELISA for phospho-ACC: activation of AMPK, beta 1 (HepG2 cells / C2C12 myotubes). In kind it is cell-based. As to conditions: 2 h, percentage activation over vehicle control; for activation at 1 µM / activation at 3 µM: read-out: Percentage activation of beta 1 at given concentration. Put shortly:
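HepG2 cells and differentiated C2C12 myotubes treated with compound at 1, 3 or 10 μM for 2 h in serum-free DMEM. Phospho-ACC detected by in-cell ELISA after methanol fixation (HRP secondary, A450), normalized to DNA (Hoechst); expressed as % activation over vehicle control.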

Where [1] appears, read: 3 μM, read-out: Percentage activation of beta 2 at given concentration.
[2] abbreviates: 1 μM, read-out: Percentage activation of beta 2 at given concentration.

Structures are written as SMILES.

T1 sequence (Q6PAM0 whole entry): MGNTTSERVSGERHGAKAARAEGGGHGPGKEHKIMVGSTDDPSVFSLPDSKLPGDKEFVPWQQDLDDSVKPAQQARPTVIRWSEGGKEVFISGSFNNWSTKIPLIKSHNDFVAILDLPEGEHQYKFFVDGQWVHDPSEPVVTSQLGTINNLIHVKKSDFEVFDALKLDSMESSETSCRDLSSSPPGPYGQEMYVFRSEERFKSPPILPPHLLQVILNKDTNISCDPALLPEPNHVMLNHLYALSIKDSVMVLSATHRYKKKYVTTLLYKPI
T1 sequence (Q8BRK8 whole entry): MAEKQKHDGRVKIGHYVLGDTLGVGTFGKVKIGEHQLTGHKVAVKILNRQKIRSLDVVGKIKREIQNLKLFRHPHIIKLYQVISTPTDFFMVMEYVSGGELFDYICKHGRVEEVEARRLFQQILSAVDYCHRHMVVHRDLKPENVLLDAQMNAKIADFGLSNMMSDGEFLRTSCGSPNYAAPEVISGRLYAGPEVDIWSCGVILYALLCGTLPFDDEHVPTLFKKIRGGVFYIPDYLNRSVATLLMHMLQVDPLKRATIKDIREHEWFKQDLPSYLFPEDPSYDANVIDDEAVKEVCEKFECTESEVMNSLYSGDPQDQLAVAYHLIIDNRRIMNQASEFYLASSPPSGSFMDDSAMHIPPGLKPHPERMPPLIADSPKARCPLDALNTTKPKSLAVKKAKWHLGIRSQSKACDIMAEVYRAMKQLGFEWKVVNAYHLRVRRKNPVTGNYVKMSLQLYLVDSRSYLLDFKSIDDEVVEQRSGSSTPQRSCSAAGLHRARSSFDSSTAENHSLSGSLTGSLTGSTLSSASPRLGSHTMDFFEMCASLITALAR
T1 sequence (O54950 whole entry partner): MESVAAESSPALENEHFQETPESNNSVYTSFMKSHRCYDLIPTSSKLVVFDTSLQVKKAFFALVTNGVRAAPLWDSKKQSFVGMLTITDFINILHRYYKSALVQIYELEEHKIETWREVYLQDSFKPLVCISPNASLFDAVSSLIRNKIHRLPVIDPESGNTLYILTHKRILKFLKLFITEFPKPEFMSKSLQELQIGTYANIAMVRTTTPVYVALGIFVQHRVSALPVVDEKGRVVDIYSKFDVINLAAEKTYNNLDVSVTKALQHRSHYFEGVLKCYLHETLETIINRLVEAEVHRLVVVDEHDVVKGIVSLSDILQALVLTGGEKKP

For the compound `Cc1ccc(C2CC23C(=O)N(C)c2cc(Cl)c(-c4ccc(-c5ccncc5)cc4)cc23)cc1C(=O)O` (stereo not shown) [Example 101], the activation at 3 µM on AMPK beta 2 (setting [1]) was determined as 46%. In addition, the activation at 1 µM at AMPK beta 1 (1 μM) is 103%.
Consider `CN1C(=O)C2(CC2c2ccc(CC(=O)O)cc2)c2cc(-c3ccc(-c4ccncc4)cc3)c(Cl)cc21` (stereo not shown) [Example 102], for which the activation at 10 µM at AMPK beta 2 (10 μM, read-out: Percentage activation of beta 2 at given concentration) worked out at 115%. For the same compound, the activation at 3 µM at AMPK beta 1 (3 μM) was found to be 33%.
`CCN1C(=O)C2(CC2c2ccc(C)c(C(=O)O)c2)c2cc(-c3ccc(-c4ccncc4)cc3)c(Cl)cc21` (stereo not shown) [Example 103]: the activation at 3 µM at AMPK beta 2 (setting [1]) was 2%; on AMPK beta 1 (3 μM) it was 74%.
For the compound `Cc1ccc(C2CC23C(=O)N(CC2CC2)c2cc(Cl)c(-c4ccc(-c5ccncc5)cc4)cc23)cc1C(=O)O` (stereo not shown) [Example 107], on AMPK beta 2 (setting [1]), the activation at 3 µM was determined as 65%. In addition, the activation at 1 µM on AMPK beta 1 (1 μM) was found to be 94%.
Consider `Cc1ccc(C2CC23C(=O)N(CC2CC2)c2cc(Cl)c(-c4ccc(-c5ccncc5)cc4)cc23)cc1C(=O)O` (stereo not shown) [Example 108], for which the “Percentage activation of beta 2 at given concentration” value at AMPK beta 2 (3 μM) is reported as 54% at 3 μM. In addition, on AMPK beta 1 (3 μM), the “Percentage activation of beta 1 at given concentration” value is 72% at 3 μM.
In the case of `Cc1ccc(C2CC23C(=O)Nc2cc(Cl)c(-c4ccc(-c5ccc(-n6cccn6)cc5)cc4)cc23)cc1C(=O)O` (stereo not shown) [Example 114], on AMPK beta 2 (setting [1]), the activation at 3 µM was found to be 57%. Moreover, at AMPK beta 1 (1 μM), the activation at 1 µM was determined as 79%.
Consider `Cc1ccc(C2CC23C(=O)Nc2cc(Cl)c(-c4ccc(-c5ccc(-n6cncn6)cc5)cc4)cc23)cc1C(=O)O` (stereo not shown) [Example 115], for which the activation at 1 µM at AMPK beta 2 (setting [2]) stood at 114%. Moreover, the “Percentage activation of beta 1 at given concentration” value at AMPK beta 1 (1 μM) is listed as 132% at 1 μM.
In the case of `COc1ccc(C2CC23C(=O)Nc2cc(Cl)c(-c4ccc(-c5ccc(-n6cncn6)cc5)cc4)cc23)cc1CC(=O)O` (stereo not shown) [Example 123], the activation at 1 µM on AMPK beta 2 (setting [2]) stood at 85%; at AMPK beta 1 (1 μM), 66%.
For the compound `Cc1ccc(C2CC23C(=O)Nc2cc(Cl)c(-c4ccc(-c5ccc(-n6cncn6)cc5)cc4)nc23)cc1C(=O)O` (stereo not shown) [Example 125], the activation at 1 µM is 46% at AMPK beta 2 (setting [2]) and 81% on AMPK beta 1 (1 μM).
For `COc1ccc(C2CC23C(=O)Nc2cc(Cl)c(-c4ccc(-c5ccc(-n6cncn6)cc5)cc4)cc23)cc1C(=O)O` (stereo not shown) [Example 128], on AMPK beta 2 (setting [1]), the activation at 3 µM is 198%. Moreover, the activation at 1 µM at AMPK beta 1 (1 μM) was 66%.
With `CCc1ccc(C2CC23C(=O)Nc2cc(Cl)c(-c4ccc(-c5ccc(-n6cncn6)cc5)cc4)cc23)cc1C(=O)O` (stereo not shown) [Example 130], the activation at 1 µM at AMPK beta 2 (setting [2]) stood at 102%; on AMPK beta 1 (1 μM), 52%.
Consider `CC(C)c1ccc(C2CC23C(=O)Nc2cc(Cl)c(-c4ccc(-c5ccc(-n6cncn6)cc5)cc4)cc23)cc1C(=O)O` (stereo not shown) [Example 132], for which the activation at 1 µM at AMPK beta 2 (setting [2]) turned out to be 153%; at AMPK beta 1 (1 μM), 59%.
Turning to `CCc1ccc(C2CC23C(=O)Nc2cc(Cl)c(-c4ccc(-c5ccc(-n6cncn6)cc5)cc4)nc23)cc1C(=O)O` (stereo not shown) [Example 133], the results for the activation at 1 µM at AMPK beta 2 (setting [2]) and at AMPK beta 1 (1 μM) were 36% and 49%, respectively.
Regarding `Cc1ccc(C2CC23C(=O)Nc2cc(Cl)c(-c4ccc(-c5ccc(-n6ccnn6)cc5)cc4)cc23)cc1C(=O)O` (stereo not shown) [Example 134], the “Percentage activation of beta 2 at given concentration” value at AMPK beta 2 (1 μM) is on record as 47% at 1 μM. Moreover, the “Percentage activation of beta 1 at given concentration” value on AMPK beta 1 (1 μM) came to 123% at 1 μM.
Regarding `Cc1ccc(C2CC23C(=O)Nc2cc(Cl)c(-c4ccc(-c5ccc(-n6ccnn6)cc5)cc4)cc23)cc1C(=O)O` (stereo not shown) [Example 135], the “Percentage activation of beta 2 at given concentration” value at AMPK beta 2 (1 μM) stood at 214% at 1 μM. Moreover, the “Percentage activation of beta 1 at given concentration” value at AMPK beta 1 (1 μM) amounted to 97% at 1 μM.
Consider `Cc1ccc(C2CC23C(=O)Nc2cc(Cl)c(-c4ccc(-c5ccc(-n6cccn6)cc5)cc4)nc23)cc1C(=O)O` (stereo not shown) [Example 138], for which the values for the activation at 1 µM on AMPK beta 2 (setting [2]) and at AMPK beta 1 (1 μM) were 173% and 72%, respectively.
Take `COc1ccc(C2CC23C(=O)Nc2cc(Cl)c(-c4ccc(-c5ccc(-n6ccnn6)cc5)cc4)cc23)cc1C(=O)O` (stereo not shown) [Example 139]: on AMPK beta 2 (setting [2]), the activation at 1 µM worked out at 283%. For the same compound, the activation at 3 µM at AMPK beta 1 (3 μM) worked out at 85%.
On to `Cc1ccc(C2CC23C(=O)Nc2cc(F)c(-c4ccc(-c5ccc(-n6cccn6)cc5)cc4)cc23)cc1C(=O)O` (stereo not shown) [Example 142], for which, on AMPK beta 2 (setting [2]), the activation at 1 µM worked out at 66%. Also, the “Percentage activation of beta 1 at given concentration” value at AMPK beta 1 (1 μM) was 89% at 1 μM.
Regarding `Cc1ccc(C2CC23C(=O)Nc2cc(F)c(-c4ccc(-c5ccc(-n6cncn6)cc5)cc4)cc23)cc1C(=O)O` (stereo not shown) [Example 145], at AMPK beta 2 (1 μM), the “Percentage activation of beta 2 at given concentration” value was 138% at 1 μM. Further, the “Percentage activation of beta 1 at given concentration” value at AMPK beta 1 (1 μM) is 67% at 1 μM.
For `Cc1ccc(C2CC23C(=O)Nc2cc(F)c(-c4ccc(-c5ccc(-n6cncn6)cc5)cc4)cc23)cc1C(=O)O` (stereo not shown) [Example 146] the same measures were 89% at 1 μM and 78% at 1 μM.
On to `Cc1ccc(C2CC23C(=O)Nc2c3cc(-c3ccc(-c4ccc(-n5cncn5)cc4)cc3)c(Cl)c2Cl)cc1C(=O)O` (stereo not shown) [Example 149], for which the activation at 1 µM was 62% on AMPK beta 2 (setting [2]) and 26% on AMPK beta 1 (1 μM).
Regarding `Cc1ccc(C2CC23C(=O)Nc2cc(Cl)c(-c4ccc(-c5ccc(-n6ccnc6C)cc5)cc4)cc23)cc1C(=O)O` (stereo not shown) [Example 150], the activation at 1 µM on AMPK beta 2 (setting [2]) is 81%; at AMPK beta 1 (1 μM), 18%.
The like results for `CC(C)(C(=O)O)c1ccc(C2CC23C(=O)Nc2cc(F)c(-c4ccc(-c5ccc(-n6cccn6)cc5)cc4)cc23)cc1` (stereo not shown) [Example 158] were, in that order, 38% and 78%.
Regarding `CC(C)(C(=O)O)c1ccc(C2CC23C(=O)Nc2cc(F)c(-c4ccc(-c5ccc(-n6cncn6)cc5)cc4)cc23)cc1` (stereo not shown) [Example 162], the activation at 1 µM at AMPK beta 2 (setting [2]) was 79%. In addition, the “Percentage activation of beta 1 at given concentration” value on AMPK beta 1 (1 μM) was 61% at 1 μM.
Consider `COc1ccc(C2CC23C(=O)Nc2cc(F)c(-c4ccc(-c5ccc(-n6cncn6)cc5)cc4)cc23)cc1C(=O)O` (stereo not shown) [Example 168], for which the activation at 1 µM at AMPK beta 2 (setting [2]) came to 84%; at AMPK beta 1 (1 μM), 55%.
Take `COc1ccc(C2CC23C(=O)Nc2cc(F)c(-c4ccc(-c5ccc(-n6ccnn6)cc5)cc4)cc23)cc1C(=O)O` (stereo not shown) [Example 169]: the activation at 1 µM on AMPK beta 2 (setting [2]) amounted to 61%; at AMPK beta 1 (1 μM), 36%.
As to `O=C(O)c1cccc(C2CC23C(=O)Nc2cc(F)c(-c4ccc(-c5ccc(-n6cccn6)cc5)cc4)cc23)c1` (stereo not shown) [Example 170], the activation at 1 µM at AMPK beta 2 (setting [2]) stood at 50%; at AMPK beta 1 (1 μM), 58%.
Take `O=C(O)Cc1cccc(C2CC23C(=O)Nc2cc(F)c(-c4ccc(-c5ccc(-n6cncn6)cc5)cc4)cc23)c1` (stereo not shown) [Example 175]: the activation at 1 µM on AMPK beta 2 (setting [2]) was determined as 60%; on AMPK beta 1 (1 μM), 119%.
As for `COc1ccc(C2CC23C(=O)Nc2cc(F)c(-c4ccc(-c5ccc(-n6cccn6)cc5)cc4)cc23)cc1CC(=O)O` (stereo not shown) [Example 176], the activation at 1 µM amounted to 126% at AMPK beta 2 (setting [2]) and 91% at AMPK beta 1 (1 μM).
As for `COc1ccc(C2CC23C(=O)Nc2cc(F)c(-c4ccc(-c5ccc(-n6cncn6)cc5)cc4)cc23)cc1CC(=O)O` (stereo not shown) [Example 178], the figures for the activation at 1 µM on AMPK beta 2 (setting [2]) and at AMPK beta 1 (1 μM) were 120% and 98%, respectively.
As for `Cc1ccc(C2CC23C(=O)Nc2cc(Cl)c(-c4ccc(-c5ccccc5O)cc4)cc23)cc1CO` (stereo not shown) [Example 181], the activation at 1 µM on AMPK beta 2 (setting [2]) and at AMPK beta 1 (1 μM) was 88% each time.
With `Cc1ccc(C2CC23C(=O)Nc2cc(F)c(-c4ccc(-c5ccccc5O)cc4)cc23)cc1CO` (stereo not shown) [Example 190], the activation at 1 µM on AMPK beta 2 (setting [2]) was found to be 94%; at AMPK beta 1 (1 μM) it was 121%.
